Target: T1, PRMT5/MEP50 (Homo sapiens, UniProt O14744)
T1 construct: Flag-PRMT5; made in house; host or cells: Spodoptera frugiperda (SF9), baculovirus
Assay: PRMT5 Biochemical Assay (PRMT5/MEP50 enzyme assay on histone H4 peptide substrate, 3H-SAM Flashplate)
Conditions: PRMT5 biochemical assay; read-out: Biochemical IC50
Source text: S-adenosylmethionine (SAM), S-adenosylhomocysteine (SAH), bicine, KCl, Tween20, dimethylsulfoxide (DMSO), bovine skin gelatin (BSG), and Tris(2-carboxyethyl)phosphine hydrochloride solution (TCEP) were purchased from Sigma-Aldrich at the highest level of purity possible. ^3H-SAM was purchase from American Radiolabeled Chemicals with a specific activity of 80 Ci/mmol. 384-well streptavidin Flashplates were purchased from PerkinElmer.
Peptide representative of human histone H4 residues 1-15 was synthesized with a C-terminal linker-affinity tag motif and a C-terminal amide cap by 21st Century Biochemicals.
The amplified genes were sublconed into pENTR/D/TEV (Life Technologies) and subsequently transferred by Gateway™ attL×attR recombination to pDEST8 baculvirus expression vector (Life Technologies).
Protein over-expression was accomplished by infecting exponentially growing Spodoptera frugiperda (SF9) cell culture at 1.2×10^6 cell/ml with a 5000 fold dilution of BIIC stock. Infections were carried out at 27° C. for 72 hours, harvested by centrifugation, and stored at −80° C. for purification.
Flag-PRMT5/6His-MeP50 was eluted with 300 mM Imidazole in the same buffer.
General Procedure for PRMT5/MEP50 Enzyme Assays on Peptide Substrates.
The assays were all performed in a buffer consisting of 20 mM Bicine (pH=7.6), 1 mM TCEP, 0.005% BSG, and 0.002% Tween20, prepared on the day of use. […] DMSO (1 ul) was added to Columns 11, 12, 23, 24, rows A-H for the maximum signal control and 1 ul of SAH, a known product and inhibitor of PRMT5/MEP50, was added to columns 11, 12, 23, 24, rows I-P for the minimum signal control. A cocktail (40 ul) containing the PRMT5/MEP50 enzyme and the peptide was added by Multidrop Combi (Thermo-Fisher). The compounds were allowed to incubate with PRMT5/MEP50 for 30 min at 25 degrees Celsius, then a cocktail (10 ul) containing ^3H-SAM was added to initiate the reaction (final volume=51 ul). […] The assays were stopped by the addition of non-radioactive SAM (10 ul) to a final concentration of 600 uM, which dilutes the ^3H-SAM to a level where its incorporation into the peptide substrate is no longer detectable. 50 ul of the reaction in the 384-well polypropylene plate was then transferred to a 384-well Flashplate and the biotinylated peptides were allowed to bind to the streptavidin surface for at least 1 hour before being washed three times with 0.1% Tween20 in a Biotek ELx405 plate washer. The plates were then read in a PerkinElmer TopCount plate reader to measure the quantity of ^3H-labeled peptide bound to the Flashplate surface, measured as disintegrations per minute (dpm) or alternatively, referred to as counts per minute (cpm).
Where dpm=disintegrations per minute, cmpd=signal in assay well, and min and max are the respective minimum and maximum signal controls.
Where top and bottom are the normally allowed to float, but may be fixed at 100 or 0 respectively in a 3-parameter fit. The Hill Coefficient normally allowed to float but may also be fixed at 1 in a 3-parameter fit. Y is the % inhibition and X is the compound concentration.

T1 sequence (O14744 with tags, fused parts or gaps): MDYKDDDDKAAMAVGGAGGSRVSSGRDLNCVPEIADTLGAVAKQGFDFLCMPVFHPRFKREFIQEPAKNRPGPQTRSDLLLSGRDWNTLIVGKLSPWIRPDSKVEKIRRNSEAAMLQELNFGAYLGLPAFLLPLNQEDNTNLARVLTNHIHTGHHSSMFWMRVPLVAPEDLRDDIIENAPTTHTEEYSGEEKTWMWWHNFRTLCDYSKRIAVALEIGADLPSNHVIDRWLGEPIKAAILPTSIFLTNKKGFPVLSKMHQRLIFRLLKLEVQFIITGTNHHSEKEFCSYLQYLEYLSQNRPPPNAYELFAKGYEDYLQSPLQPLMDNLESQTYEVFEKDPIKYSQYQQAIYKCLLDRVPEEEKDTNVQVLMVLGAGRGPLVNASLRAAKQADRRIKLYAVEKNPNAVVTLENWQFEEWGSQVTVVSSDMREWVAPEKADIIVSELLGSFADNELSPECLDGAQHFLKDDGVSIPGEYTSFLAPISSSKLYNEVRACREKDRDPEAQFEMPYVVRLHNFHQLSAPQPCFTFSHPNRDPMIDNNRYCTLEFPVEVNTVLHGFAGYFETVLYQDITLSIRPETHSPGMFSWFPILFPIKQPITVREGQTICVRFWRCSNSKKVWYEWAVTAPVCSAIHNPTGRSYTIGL
T1 sequence (Q9BQA1 with tags, fused parts or gaps partner limits assumed): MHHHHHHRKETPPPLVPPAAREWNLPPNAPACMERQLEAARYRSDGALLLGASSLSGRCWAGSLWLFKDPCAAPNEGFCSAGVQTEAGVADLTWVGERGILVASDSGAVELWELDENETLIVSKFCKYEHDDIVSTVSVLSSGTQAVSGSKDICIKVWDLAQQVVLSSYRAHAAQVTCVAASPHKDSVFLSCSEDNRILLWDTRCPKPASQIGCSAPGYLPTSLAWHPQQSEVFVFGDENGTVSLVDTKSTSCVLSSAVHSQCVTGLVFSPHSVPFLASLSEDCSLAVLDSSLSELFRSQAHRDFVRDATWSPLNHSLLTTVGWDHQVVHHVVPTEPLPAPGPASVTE

Row | SMILES | IC50 [µM]
1 | Cc1ccc(C(=O)CC2NC(N3CCN(C)CC3)=NC2=O)cc1 (stereo not shown) [Compound 27-14] | 1 to 10
2 | CC(CN)N(C)C[C@H]1O[C@@H](n2cnc3c(N)ncnc32)[C@H](O)[C@@H]1O (stereo partly shown) [Compound 28-1] | 0.101 to 1
3 | Cc1ccc(C(=O)CC2NC(N3CCN(Cc4ccccc4)CC3)=NC2=O)cc1 (stereo not shown) [Compound 28-14] | 1 to 10
4 | NCCNC[C@H]1O[C@@H](n2cnc3c(N)ncnc32)[C@H](O)[C@@H]1O [Compound 29-1] | 0.101 to 1
5 | Cc1ccc(C(=O)CC2NC(N3CCc4ccccc4C3)=NC2=O)cc1 (stereo not shown) [Compound 29-14] | 0.101 to 1
6 | NCCCN(CCN)C[C@H]1O[C@@H](n2cnc3c(N)ncnc32)[C@H](O)[C@@H]1O [Compound 30-1] | < 0.1
7 | Cc1ccc(C(=O)CC2NC(N3CCN(c4ccccc4F)CC3)=NC2=O)cc1 (stereo not shown) [Compound 30-14] | 1 to 10
8 | NCCN(CCCC(=O)O)C[C@H]1O[C@@H](n2cnc3c(N)ncnc32)[C@H](O)[C@@H]1O [Compound 31-1] | < 0.1
9 | Cc1ccc(C(=O)CC2NC(N3CCN(c4cccc(F)c4)CC3)=NC2=O)cc1 (stereo not shown) [Compound 31-14] | 1 to 10
10 | CN(CCC[C@@H](N)C(=O)O)C[C@H]1O[C@@H](n2cnc3c(N)ncnc32)[C@H](O)[C@@H]1O [Compound 32-1] | 0.101 to 1
11 | Cc1ccc(C(=O)CC2NC(N3CCN(c4ccc(F)cc4)CC3)=NC2=O)cc1 (stereo not shown) [Compound 32-14] | 1 to 10
12 | CC(CCCN(CCN)C[C@H]1O[C@@H](n2cnc3c(N)ncnc32)[C@H](O)[C@@H]1O)C(=O)O (stereo partly shown) [Compound 33-1] | < 0.1
13 | Cc1ccc(C(=O)CC2NC(N3CCN(c4ccccn4)CC3)=NC2=O)cc1 (stereo not shown) [Compound 33-14] | 1 to 10
14 | NCCN(CCCCC(=O)O)C[C@H]1O[C@@H](n2cnc3c(N)ncnc32)[C@H](O)[C@@H]1O [Compound 34-1] | < 0.1
15 | Cc1ccc(C(=O)CC2NC(N3CCN(c4ccncc4)CC3)=NC2=O)cc1 (stereo not shown) [Compound 34-14] | 10 to 50
16 | NCCN(CCC[C@H](N)CO)C[C@H]1O[C@@H](n2cnc3c(N)ncnc32)[C@H](O)[C@@H]1O [Compound 35-1] | 0.101 to 1
17 | Cc1ccc(C(=O)CC2NC(N3CCN(Cc4ccc(F)cc4)CC3)=NC2=O)cc1 (stereo not shown) [Compound 35-14] | 1 to 10
18 | Cc1ccc(C(=O)CC2NC(N3Cc4ccccc4C3)=NC2=O)cc1 (stereo not shown) [Compound 36-14] | 1 to 10
19 | CN(C)CCN(C)C[C@H]1O[C@@H](n2cnc3c(N)ncnc32)[C@H](O)[C@@H]1O [Compound 37-1] | 0.101 to 1
20 | O=C(CC1NC(N2CCN(c3ccccc3)CC2)=NC1=O)c1ccccc1 (stereo not shown) [Compound 37-14] | 0.101 to 1
21 | CCN(CC)CCN(C)C[C@H]1O[C@@H](n2cnc3c(N)ncnc32)[C@H](O)[C@@H]1O [Compound 38-1] | 0.101 to 1

Further lines, results first:

Row | IC50 [µM] | SMILES
22 | 1 to 10 | COc1ccc(C(=O)CC2NC(N3CCN(c4ccccc4)CC3)=NC2=O)cc1 (stereo not shown) [Compound 38-14]
23 | 0.101 to 1 | CN1CCC(N(C)CCN(C)C[C@H]2O[C@@H](n3cnc4c(N)ncnc43)[C@H](O)[C@@H]2O)C1 (stereo partly shown) [Compound 39-1]
24 | 0.101 to 1 | COc1cccc(C(=O)CC2NC(N3CCN(c4ccccc4)CC3)=NC2=O)c1 (stereo not shown) [Compound 39-14]
25 | 0.101 to 1 | CN(CCN1CCCN(Cc2ccccc2)CC1)C[C@H]1OC(n2cnc3c(N)ncnc32)[C@H](O)[C@@H]1O (stereo partly shown) [Compound 40-1]
26 | 1 to 10 | N#Cc1ccc(C(=O)CC2NC(N3CCN(c4ccccc4)CC3)=NC2=O)cc1 (stereo not shown) [Compound 40-14]
27 | 0.101 to 1 | CN(CCN1CCC(Oc2ccccn2)CC1)C[C@H]1OC(n2cnc3c(N)ncnc32)[C@H](O)[C@@H]1O (stereo partly shown) [Compound 41-1]
28 | 1 to 10 | Cc1ccc(C(=O)CC2NC(N(C)CCc3ccccc3)=NC2=O)cc1 (stereo not shown) [Compound 41-14]
29 | 0.101 to 1 | CCCN(CCN(C)C[C@H]1O[C@@H](n2cnc3c(N)ncnc32)[C@H](O)[C@@H]1O)CC1CC1 [Compound 42-1]
30 | 0.101 to 1 | O=C(CC1NC(N2CCN(c3ccccc3)CC2)=NC1=O)c1ccc(Cl)cc1 (stereo not shown) [Compound 42-14]
31 | 0.101 to 1 | CN(CCN1CCC(c2ccccc2)CC1)CC1OC(n2cnc3c(N)ncnc32)[C@H](O)[C@@H]1O (stereo partly shown) [Compound 43-1]

Reference: patent publication US20170198006A1, “PRMT5 INHIBITORS AND USES THEREOF” (Epizyme, Inc., priority 2014, published 2017)
